Tests used:
[1] = human, plasma, 2 h, 10 µM
Description: Stability in human plasma at 10 uM measured upto 120 mins by LC-MS analysis

[2] = rat, plasma, 2 h, 10 µM
Description: Stability in rat plasma at 10 uM measured upto 120 mins by LC-MS analysis

[3] = human, microsomes, 1 h
physchem [4] = settings: simulated gastric fluid
Description: Chemical stability in stimulated gastric fluid assessed as compound remaining at 10 uM measured upto 120 mins by LC-MS analysis

physchem [5] = settings: simulated intestinal fluid
Description: Chemical stability in stimulated intestinal fluid assessed as compound remaining at 10 uM measured upto 120 mins by LC-MS analysis

- Stability [1]: Stable
- Stability [2]: Stable
- Stability [3]: Stable
- remaining at 2 h, 10 µM (physchem [4]): > 80%
- remaining at 2 h, 10 µM (physchem [5]): > 80%
SMILES: Cc1ccc(NC(=O)c2ccc3c(c2)c(CNCCN2CCNCC2)cn3C)cc1C

From ChEMBL document CHEMBL5550203, “A Comprehensive In Vitro Characterization of a New Class of Indole-Based Compounds Developed as Selective Haspin Inhibitors” (J Med Chem, 2024)
